In US20200270309A1, “MALEIMIDE GROUP-MODIFIED ANGIOGENESIS INHIBITOR HM-1 AND USE THEREOF” (NANJING ANJI BIOLOGICAL TECHNOLOGY CO., LTD, priority 2017, published 2020):
Marks after values point to notes of the source that are not given here.

Columns and labels:
[1] = system: Esophageal cancer tumor cell line; test: MTT proliferation inhibition, esophageal cancer; type: cell-based, human; details: 48 h, mean ±SD
[2] = system: Thyroid cancer tumor cell line; test: MTT proliferation inhibition, thyroid cancer; type: cell-based, human; details: 48 h, mean ±SD
[3] = system: Pancreatic cancer tumor cell line; test: MTT proliferation inhibition, pancreatic cancer; type: cell-based, human; details: 48 h, mean ±SD
[4] = system: Head and neck cancers tumor cell line; test: MTT proliferation inhibition, head and neck cancers; type: cell-based, human; details: 48 h, mean ±SD
Brain tumor cell line = test: MTT proliferation inhibition, brain tumor; type: cell-based, human; details: 48 h, mean ±SD
[5] = system: IL-1β production by mouse peritoneal macrophages; test: IL-1β production by mouse peritoneal macrophages (ELISA); type: cell-based; details: dose 20 μM
Experimental: Mice were injected intraperitoneally with 1 mL of broth culture medium (containing 6% of starch). Three days later, mice peritoneal macrophages were taken aseptically and washed twice with 1640 culture medium, and the cell concentration was adjusted to 2×10^6 cells/mL. The solutions were injected into 24-well culture plates at 1 mL per well. The cells were incubated in a cell incubator for 3 h and vibrated once every 30 min to make the cells fully adhere to the wall. Then, the cells were washed twice with a culture solution to remove non-adhered cells. PBS was added to the blank group, positive drug Dex was added to the positive group, no drug was added to the model group, and polypeptides X1-X90 with low, medium and high concentrations were added to the test groups; and the cells were continuously cultured for 48 h after administration, and then centrifuged at 1000 r/min for 15 min. The supernatant was collected as a sample to be tested for IL-1β activity.

splenic lymphocytes = test: Proliferation of splenic lymphocytes in mice (ConA, MTT); type: cell-based; details: dose 20 μM (Dex group), mouse splenic lymphocytes, 48 h
Experimental: Spleens of mice were taken out under aseptic conditions, washed with blank 1640 culture medium 3 times, ground with a 5 mL syringe core, filtered with a 200-mesh sieve, made into a single cell suspension. The suspension was centrifuged (1000 rpm×5 min), and supernatant was removed. Red blood cells were lysed by Tris-NH4Cl, and placed in ice water bath for 4 min and centrifuged (1000 rpm×5 min). The supernatant was removed, and the cells were washed twice with sterile PBS. Finally, RPMI 1640 culture solution (5 mL) containing 10% calf serum was added to suspend the cells. The cells were counted and the cell concentration was adjusted to 5×10^6 cells/mL, and the cells were cultured in a 96-well culture plate.
Blank control group, concanavalin A (ConA) group and dexamethasone (Dex) group were set in the experiment, and polypeptide X1-X90 groups were set as test groups. After 100 μL of splenic lymphocytes suspension per well was added into each group, 100 μL of blank 1640 culture solution was added into the blank control group, ConA was added into the ConA group, Dex was added into the Dex group, and ConA was added into the test groups on the basis of adding different concentrations of polypeptides X1-X90. The cells were static cultured at 37° C. in a cell incubator for 48 h. After the cultivation was completed, 20 μL of MTT was added to each well, and the cultivation was continued for 4 h. Finally, all the solutions in each well were discarded. 100 μL DMSO was added to each well and shaken, and the OD value at 570 nm was detected with a microplate reader. Five parallel experiments were set in each well.

[6] = system: carrageenan-induced toe swelling; test: Carrageenan-induced toe swelling in rats; type: in vivo; details: SD rats, Dex 10 mg/kg once a day for 3 d
Experimental: The rats were injected once a day, and the model group was given the same volume of normal saline for 3 d and fed normally. […] The foot swelling degree was calculated according to the following formula: foot swelling degree (mL)=foot volume after inflammation-foot volume before inflammation. The number of milliliters of overflow liquid was recorded (method: a ballpoint pen is used to circle the protruding point of the right joint as a measurement mark, and the right hind feet of each rat are sequentially placed into the volume measurer, so that the hind limbs are exposed outside the barrel, and the immersion depth is at the coincidence of the circle and the liquid level. After the foot enters the liquid, the liquid level rises, and the volume of overflow liquid is the volume of the right hind foot of the rat, and the normal volume of the right hind foot of each rat is measured in sequence).

[7] = system: xylene-induced ear swelling; test: Xylene-induced mouse ear swelling; type: in vivo; details: Kunming mice, positive control, dose 200 mg/kg, once a day for 5 days
Experimental: Kunming mice were taken, a normal saline group was taken as a blank control group, an aspirin group (200 mg/kg) was taken as a positive control group, and X1-X90 administration groups were taken as test groups. The mice were injected once a day for 5 consecutive days. The blank control group was given an equal volume of normal saline. One hour after the last administration, 0.05 mL of xylene was applied to both sides of the right ear of each mouse to cause inflammation, while no drug was applied to the left ear as a normal ear. Two hours later, the mice were put to death by dislocation. Two ears were cut along the auricle. Ear pieces were taken with a puncher and weighed, and the swelling degree and the swelling rate were calculated. Swelling degree=right ear piece weight-left ear piece weight, swelling rate=(swelling degree/left ear piece weight)*100%. Statistical t-test was conducted on the experimental results. *P<0.05 indicates significant difference, and **P<0.01 indicates extremely significant difference.

HUVECs = test: Transwell migration inhibition on HUVECs; type: cell-based, human; details: dose 0.2 μM
[8] = system: human retinal capillary endothelial cells (HRCECs); test: MTT proliferation inhibition on HRCECs; type: cell-based; details: 48 h, dose 0.5 μM (positive control)
Experimental: An MTT method was used to detect the inhibitory activity of the angiogenesis inhibitor polypeptide on proliferation of HRCECs. HRCECs were digested and collected with trypsin after being cultured in an incubator at 37° C. with 5% CO2 to a density of 90% or more. The cells were resuspended with a culture solution and counted under a microscope, the cell concentration was adjusted to 3.0×10^4 cells/mL, and the cell suspension was inoculated into a 96-well plate at 100 μL/well, and cultured overnight in an incubator at 37° C. with 5% CO2. After the cells were completely adhered to the wall, cells with the addition of the angiogenesis inhibitor polypeptide were used as administration groups, cells with the addition of Avastin were used as a positive control group, and cells with the addition of culture solution without any drugs were used as a blank control group. The cells were diluted to respective predetermined concentrations with the culture solution. The diluent were added into 96-well plates respectively at 100 μL per well, and the cells were cultured at 37° C. for 48 h in an incubator with 5% CO2. 20 μL of 5 mg/mL MTT was added into each well of the 96-well plate, and the cultivation was continued for 4 h. The culture medium was removed, and 100 μL of DMSO was added to each well for dissolution. The absorbance was measured at a detection wavelength of 570 nm and a reference wavelength of 630 nm using a microplate reader, and the PIR was calculated by the formula as follows:
PIR (%)=1−administration group/negative group
The experiment was repeated independently three times. The results were expressed as mean±SD, and statistical T test was conducted. *P<0.05 indicates significant difference, and **P<0.01 indicates extremely significant difference.

CC(=O)O[C@@]12CO[C@@H]1C[C@H](O)[C@@]1(C)C(=O)[C@H](O)C3=C(C)[C@@H](OC(=O)[C@H](O)[C@@H](NC(=O)OC(C)(C)C)c4ccccc4)C[C@@](O)([C@@H](OC(=O)c4ccccc4)[C@H]21)C3(C)C [Docetaxel]
PIR (%) [1]: 53.43% | PIR (%) [2]: 73.75% | PIR (%) [3]: 45.92% | PIR (%) [4]: 55.66% | PIR (%) (Brain tumor cell line): 70.69%

C[C@@H]1C[C@H]2[C@@H]3CCC4=CC(=O)C=C[C@]4(C)[C@@]3(F)[C@@H](O)C[C@]2(C)[C@@]1(O)C(=O)CO [Dex]
Inhibition rate ([5]; IL-1β production, vs model group): 62.95% | IL-1β ([5]; mouse peritoneal macrophages, 48 h, ELISA): 352.06 ± 17.29 pg/mL | A570 nm/A630 nm (splenic lymphocytes): 0.3918 ± 0.1127 | Inhibition rate (%) (splenic lymphocytes): 52.65% | Swelling degree 1 h ([6]; 1 h after carrageenan): 0.22 ± 0.10 mg | Swelling degree 3 h ([6]; 3 h after carrageenan): 0.24 ± 0.11 mg | Swelling degree 5 h ([6]; 5 h after carrageenan): 0.29 ± 0.11 mg | Swelling degree 7 h ([6]; 7 h after carrageenan): 0.23 ± 0.08 mg

CC(=O)Oc1ccccc1C(=O)O [Aspirin]
Swelling degree (mg) [7]: 3.08 ± 0.31** mg | inhibition at 200 mg/kg ([7]; Mus musculus, 120 h, read-out: Inhibition rate (%)): 51%

Avastin: positive control [reference compound]
Inhibition rate (%) (HUVECs; HUVEC migration vs blank control): 60.92% | Cell migration number (Mean ± SD) (HUVECs; HUVECs, transwell, 24 h): 418.92 ± 61.42 | Cell migration number (Mean ± SD) (HUVECs; 24 h): 418.92 ± 61.42 | Inhibition rate (migration) (HUVECs; 24 h): 60.92% | Inhibition rate (%) [8]: 67.30%** | A570 nm-A630 nm ([8]; mean±SD): 0.4325 ± 0.01108
